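Step 1: Grow cells in 96-well plates. Step 2: Expose to compound for 48 hours at 5 concentrations. Step 3: Interpolate endpoints linearly; if unreached, use highest concentration. Here, GI50 denotes the concentration required for 50% inhibition of growth. TGI: concentration producing complete growth inhibition.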 Where a SMILES comes first, the peptide text is derived from it. The star is where a group is joined. Boc = CC(C)(C)OC(=O)*; OBn = c1ccc(CO*)cc1
Assays:
Assay in all cases: DTP human tumour cell line panel, 48 h
ACHN renal = tested on: ACHN renal
UACC-62 melanoma = tested on: UACC-62 melanoma
UACC-257 melanoma = tested on: UACC-257 melanoma
SNB-19 CNS = tested on: SNB-19 CNS
OVCAR-5 ovarian = tested on: OVCAR-5 ovarian
NCI-H460 lung = tested on: NCI-H460 lung
HCT-116 colon = tested on: HCT-116 colon
HL-60(TB) leukemia = tested on: HL-60(TB) leukemia
HOP-92 NSCLC = tested on: HOP-92 NSCLC
SR leukemia = tested on: SR leukemia

Row | SMILES | TGI (ACHN renal) [µM] | TGI (UACC-62 melanoma) [µM] | TGI (UACC-257 melanoma) [µM] | TGI (SNB-19 CNS) [µM] | TGI (OVCAR-5 ovarian) [µM] | TGI (NCI-H460 lung) [µM] | TGI (HCT-116 colon) [µM] | TGI (HL-60(TB) leukemia) [µM] | TGI (HOP-92 NSCLC) [µM] | TGI (SR leukemia) [µM] | GI50 (ACHN renal) [µM] | GI50 (UACC-62 melanoma) [µM] | GI50 (SR leukemia) [µM] | GI50 (HL-60(TB) leukemia) [µM] | GI50 (UACC-257 melanoma) [µM] | GI50 (SNB-19 CNS) [µM] | GI50 (HOP-92 NSCLC) [µM] | GI50 (HCT-116 colon) [µM]
1 | NC(=O)C1N=NSC1NC(=O)c1ccc([N+](=O)[O-])cc1 (configuration not stated) | > 100 | > 100 | > 100 | > 100 | > 100 | > 100 | > 100 | – | – | – | – | – | – | – | – | – | – | –
2 | Cc1c(-c2ccc(O)c(O)c2)oc(=O)c2c(O)cccc12 | > 100 | – | 44.3 | 36.1 | 33.5 | 41 | 20 | > 100 | 58.2 | – | – | – | – | – | – | – | – | –
3 | NC(=S)N/N=C1\CCCCC1C(O)(C(F)(F)Cl)C(F)(F)Cl (configuration not stated) | > 10 | > 10 | > 10 | > 10 | > 10 | > 10 | > 10 | > 10 | > 10 | – | – | – | – | – | – | – | – | –
4 | Cc1nn(-c2ccccc2)c2nc3ccc(Cl)cc3c(-c3ccccc3)c12 | > 100 | > 100 | – | > 100 | > 100 | > 100 | > 100 | – | > 100 | > 100 | – | – | – | – | – | – | – | –
5 | CC(C)CC(NC(=O)C(Cc1ccccc1)NC(=O)C(Cc1ccccc1)NC(=O)OC(C)(C)C)C(=O)OCc1ccccc1 (stereo not drawn) (Boc-Phe-Phe-Leu-OBn; configuration not given here) | – | > 100 | > 100 | > 100 | > 100 | – | > 100 | > 100 | > 100 | > 100 | – | – | – | – | – | – | – | –
6 | CCCCS(=O)CC(CO)NC(=O)/C=C/c1c(C)[nH]c(=O)[nH]c1=O (configuration not stated) | – | 32 | 55 | 24.8 | 89.8 | 17.2 | 88.2 | 21.5 | 101 | – | – | – | – | – | – | – | – | –
7 | COC(=O)C1=COc2c(n(C)c3ccccc23)-c2ccccc21 | > 100 | > 100 | > 100 | > 100 | > 100 | > 100 | > 100 | > 100 | – | > 100 | – | – | – | – | – | – | – | –
8 | C=CCN1C[C@@H](C)N([C@@H](c2ccc(C(=O)N(CC)CC)cc2)c2cccc(OC)c2)C[C@@H]1C | > 100 | > 100 | – | > 100 | > 100 | – | > 100 | – | > 100 | > 100 | – | – | – | – | – | – | – | –
9 | O=C1C2CC=CCC2C(=O)N1n1c(Cc2ccccc2)n[nH]c1=O (configuration not stated) | > 100 | > 100 | > 100 | > 100 | > 100 | > 100 | > 100 | – | > 100 | > 100 | – | – | – | – | – | – | – | –
10 | Nc1[nH]c(=S)c2c(N)n[nH]c2c1C(=O)Nc1ccc(Cl)cc1 | – | > 100 | > 100 | > 100 | > 100 | > 100 | > 100 | > 100 | > 100 | > 100 | – | – | – | – | – | – | – | –
11 | NC(=O)CNC(=O)[C@@H]1C[C@@H](OCCC(=O)O)CN1C(=O)OCc1ccccc1 | > 100 | > 100 | > 100 | > 100 | > 100 | > 100 | > 100 | > 100 | – | > 100 | – | – | – | – | – | – | – | –
12 | COc1cc2cc3c4c(cc(OC)c(OC)c4c2cc1OC)CCN3C(=O)CCC(=O)O | > 100 | > 100 | > 100 | > 100 | > 100 | – | > 100 | > 100 | > 100 | > 100 | – | – | – | – | – | – | – | –
13 | O=C1CCCN1CCCN=c1cc2n(-c3ccc(Cl)cc3)c3ccccc3nc-2cc1Nc1ccc(Cl)cc1 | – | 26.2 | 24.7 | 98.8 | 37.3 | 22.1 | 25.3 | 15.8 | 40.6 | – | – | – | – | – | – | – | – | –
14 | COc1ccc(-c2nc3c(nc2-c2ccc(OC)cc2)N(C)S(=O)(=O)N=C3N)cc1 | 80 | 94.3 | – | > 100 | 94.6 | > 100 | 30.7 | 43.7 | 51.6 | 35.3 | – | – | – | – | – | – | – | –
15 | O=C(c1ccccc1)c1nn(-c2ccccc2)c2nc3nc(-c4ccccc4)cc(=O)n3nc12 | > 100 | 89.2 | 61.4 | > 100 | – | – | 28 | 42.4 | 78.3 | 40.4 | 37.1 | 29.4 | 17.6 | 15.2 | 30.7 | 42.7 | 24.6 | 14.6
16 | O=C1Nc2ccccc2/C1=C\c1c(Cl)nc2n1CCS2 | > 100 | 32.2 | 30.6 | > 100 | > 100 | 45.3 | 68 | 48.8 | > 100 | – | – | – | – | – | – | – | – | –
17 | COC(=O)C1C(O)C(C)C(O)OC1C(C)C(O)C(C)/C=C\C=C(/C)C(=O)Nc1c(C)c(OC(C)=O)c2c(c1O)C(=O)C(C)=C1OCOC(/C(C)=C/C(C)=O)=C12 (configuration not stated) | – | 31.1 | 23.7 | 30.9 | 25 | 26.5 | 19.9 | 15.3 | 22.3 | – | – | – | – | – | – | – | – | –
18 | Cc1[nH]c(=O)nc(N(CCO)/N=C/c2ccc(Cl)cc2)c1C(=O)Nc1ccc(Cl)cc1 | > 100 | > 100 | > 100 | > 100 | > 100 | > 100 | > 100 | > 100 | > 100 | – | – | – | – | – | – | – | – | –
19 | NC(C(=O)OC(=O)c1ccccc1)C(=O)OC(=O)c1ccccc1 | > 100 | – | > 100 | > 100 | > 100 | > 100 | > 100 | – | – | – | – | – | – | – | – | – | – | –
20 | COc1ccccc1/C=C/c1nc2ccccc2o1 | > 10 | > 10 | > 10 | > 10 | > 10 | > 10 | > 10 | – | > 10 | > 10 | – | – | – | – | – | – | – | –
21 | O=C1C=C2CC[C@H]3[C@@H]4CC[C@H](Oc5c6ccccc6nc6ccccc56)[C@H]4CC[C@@H]3[C@H]2CC1 | > 100 | > 100 | > 100 | > 100 | > 100 | > 100 | > 100 | 47.4 | 80.3 | – | – | – | – | – | – | – | – | –
22 | N#CCCN(CCC#N)c1ccc(C(N=Nc2ccc(Cl)cc2)=Nc2ccc(Cl)cc2)cc1 | 34 | 30.2 | 29.7 | 53.3 | 43.8 | 29.2 | 36.5 | – | 38.8 | > 100 | – | – | – | – | – | – | – | –

From PubChem BioAssay (NCI)
